In patent EP3329923A1, “THE POTENTIAL OF CRBN-INDEPENDENT IMID RESENSITIZATION BY EPIGENETIC THERAPY” (University of Copenhagen, priority 2016, dated 2018):

How the values were obtained:
[1] = tested on: all IMiD-resistant cell lines; assay: Resensitization to IMiDs after 48 hours epidrug pretreatment, apoptosis and cell cycle assays; type: cell-based, human; details: epidrug pretreatment for 48 hours, then no treatment vs. 10 µM lenalidomide or pomalidomide; panobinostat as monotherapy or combined with 5-Azacytidine or EPZ-6438
[2] = tested on: CRBN; assay: CRBN expression by qPCR after epidrug treatment; details: OPM2-LR and OPM2-PR, monotherapy and combination (Figure 13A)
[3] = tested on: EZH2; details: EZH2 over EZH1; cited from earlier work
[4] = tested on: KMS12-BM; assay: Apoptosis assay, epigenetic sensitization in intrinsic IMiD resistance; details: baseline IMiD resistance (Figure 13C)
Method: (§3) Cell apoptosis was evaluated using Annexin V and PI, with the analysis performed on a FACS-Calibur (BD Bioscience).
(§4) The present inventors then went on to examine whether the combination of epidrugs was effective in intrinsically IMiD-resistant cell lines.

[5] = tested on: JJN3; assay: as above; details: JJN3, baseline IMiD resistance (Figure 13C)
Method: as §3, §4

[6] = tested on: OPM2-PR; assay: Apoptosis assay (Annexin V and PI), resensitization to IMiDs; details: epidrug treatment 48 hours, then 10 µM lenalidomide or 10 µM Pomalidomide for 3 days (Figure 11B)
Method: Cell proliferation (and IC50 for each cell line) was assessed by measuring 2,3-Bis-(2-Methoxy-4-Nitro-5-Sulfophenyl)-2H-Tetrazolium-5-Carboxanilide (XTT) dye absorbance 3 days after treatment with IMiDs. Cell apoptosis was evaluated using Annexin V and PI, with the analysis performed on a FACS-Calibur (BD Bioscience).

[7] = tested on: JJN3; assay: Cell proliferation, XTT dye absorbance (IC50 of IMiDs); type: cell-based; details: Homo sapiens, JJN-3, 72 h, XTT absorbance 3 days after treatment with IMiDs
Source text: (§1) A total of seven commercially available human myeloma cell lines (JJN3, OPM2, RPMI-8226, U266, NCI-H929, LP-1, KMS12-BM) were purchased from DSMZ (Leibniz Institute DSMZ-German Collection of Microorganisms and Cell Cultures, Braunschweig, Germany).
(§2) First, the present inventors tested the sensitivity of all HMCL to both lenalidomide and pomalidomide by generating dose-response curves and calculating the IC50 of both drugs for each cell line (given in tables below).

[8] = tested on: NCI-H929; assay: as above; type: cell-based; details: Homo sapiens, 72 h, XTT absorbance 3 days after treatment with IMiDs
Source text: as §1, §2

[9] = tested on: OPM2; assay: as above; type: cell-based; details: Homo sapiens, OPM-2, 72 h, XTT absorbance 3 days after treatment with IMiDs
Source text: as §1, §2

[10] = tested on: KMS12-BM; assay: as above; type: cell-based; details: Homo sapiens, KMS-12-BM, 72 h, XTT absorbance 3 days after treatment with IMiDs
Source text: as §1, §2

[11] = tested on: U266; assay: as above; type: cell-based; details: Homo sapiens, U-266, 72 h, XTT absorbance 3 days after treatment with IMiDs
Source text: as §1, §2

[12] = tested on: RPMI-8226; assay: as above; type: cell-based; details: Homo sapiens, RPMI-8226, 72 h, XTT absorbance 3 days after treatment with IMiDs
Source text: as §1, §2

IC50 [8] [µM] | IC50 [11] [µM] | IC50 [12] [µM] | SMILES | resensitization to IMiDs (IMiD sensitivity) [1] | expression of CRBN [2] | IC50 [7] [µM] | IC50 [9] [µM] | IC50 [10] [µM] | also measured
 |  |  | Nc1ncn([C@@H]2O[C@H](CO)[C@@H](O)[C@H]2O)c(=O)n1 [5-Azacytidine, 4-amino-1-beta-D-ribofuranosyl-1,3,5-triazin-2(1H)-one] | did not restore IMiD sensitivity | remained low and unchanged |  |  |  | 
 |  |  | Cc1cc(C)c(CNC(=O)c2cc(-c3ccc(CN4CCOCC4)cc3)cc3c2cnn3C2CCCC2)c(=O)[nH]1 [EPZ005687] |  |  |  |  |  | selectivity for EZH2 compared to EZH1 [3]: 50 fold
 |  |  | CCN(c1cc(-c2ccc(CN3CCOCC3)cc2)cc(C(=O)NCc2c(C)cc(C)[nH]c2=O)c1C)C1CCOCC1 [EPZ-6438, N-((4,6-dimethyl-2-oxo-1,2-dihydropyridin-3-yl)methyl)-5-(ethyl(tetrahydro-2H-pyran-4-yl)amino)-4-methyl-4'-(morpholinomethyl)-[1,1'-biphenyl]-3-carboxamide] | did not restore IMiD sensitivity | remained low and unchanged |  |  |  | sensitization to lenalidomide and pomalidomide [4]: able to render the cells sensitive to both lenalidomide and pomalidomide; sensitization to lenalidomide and pomalidomide [5]: able to render the cells sensitive to both lenalidomide and pomalidomide; resensitization to lenalidomide and pomalidomide (apoptosis) [6]: minor resensitization effect
0.563 | 68.1 | 118 | Nc1cccc2c1CN(C1CCC(=O)NC1=O)C2=O (centres unmarked) [Lenalidomide] |  |  | 136 | 5.01 | 20.8 | 
0.003 | 60.5 | 98.3 | Nc1cccc2c1C(=O)N(C1CCC(=O)NC1=O)C2=O (centres unmarked) [Pomalidomide] |  |  | 87.3 | 2.01 | 15.2 | 
